Laboratory results: patent US12202805B2, “Process for preparing (5S)-{[2-(4-carboxyphenyl)ethyl] |2-(2-{|3-chloro-4'-(trifluoromethyl)biphenyl-4-yl]methoxy}phenyl)ethyl]aminol-5,6,7,8-tetrahydroquinoline-2-carboxylic acid and its crystalline forms for use as pharmaceutically active compound” (Bayer Aktiengesellschaft, priority 2021, dated 2025)
One block for each molecule: values may come before it.

Experiments:
[1] = test system: patients with severe pulmonary hypertension; conditions: cited from earlier work
[2] = test system: animal model of pulmonary hypertension; conditions: cited from earlier work
[3] = test system: thromboxane A2 challenged PAH-minipig; assay: Haemodynamics in the anesthetized thromboxane challenged minipig, inhaled nebulized solution (PAP, BP); type: in vivo, Göttingen Minipigs; conditions: 10 μg/kg nominal dose inhaled, mean
Experimental: E-1 Haemodynamics in the Anesthetized Thromboxane Challenged Minipig
Lung Selectivity and Duration of Action
Healthy Göttingen Minipigs® Ellegaard (Ellegaard, Denmark) of both sexes and having a weight of 2-6 kg were used. The animals were sedated by i.m. administration of about 25 mg/kg ketamine and about 10 mg/kg azaperone. Anaesthesia was initiated by i.v. administration of about 2 mg/kg ketamine and about 0.3 mg/kg midazolam. Maintenance of anaesthesia was by i.v. administration of about 7.5-30 mg/kg/h ketamine and about 1-4 mg/kg/h midazolam (rate of infusion 1-4 ml/kg/h) and about 150 μg/kg/h pancuronium bromide (for example Pancuronium-Actavis). After intubation, the animals were ventilated by the ventilator at a constant respiratory volume (10-12 ml/kg, 35 breaths/min; Avea®, Viasys Healthcare, USA, or Engström Carestation, GE Healthcare, Freiburg, Germany) such that an end-tidal CO2 concentration of about 5% was achieved. Ventilation was performed with room air, enriched with about 40% oxygen (normoxia). For the measurement of the haemodynamic parameters such as pulmonary arterial pressure (PAP), blood pressure (BP) and heart rate (HR), catheters were inserted into the carotid artery to measure the blood pressure, and a Swan-Ganz® catheter was introduced in a flow-directed manner via the jugular vein into the pulmonary artery. The haemodynamic signals were recorded and evaluated by means of pressure transducers (Combitransducer, B. Braun, Melsungen, Germany)/amplifiers and Ponemah® as data acquisition software.
After the instruments have been placed into the animals, continuous infusion of a thromboxane A2 analog was initiated to increase the pulmonary arterial pressure. About 0.3-0.75 μg/kg/min of 9,11-didesoxy-9α,11α-epoxymethanoprostaglandine F2α (U-44069; Sigma, cat. no. D0400, or Cayman Chemical Company, cat. no. 16440), dissolved in physiological saline, were infused to achieve an increase of the mean pulmonary arterial pressure to values of over 25 mmHg. 30 minutes after the start of the infusion, a plateau was reached, and the experiment was started.
The test substances were administered as i.v. infusion or by inhalation. For the preparation of the solution for inhalation, the following procedure was adopted: For an animal having a weight of 4 kg, to prepare the stock solution (300 μg/kg), 1.2 mg of the test compound were weighed out and dissolved in a total volume of 3 ml (1% DMSO, 99% 0.2% strength citric acid solution, 1 n aqueous sodium hydroxide solution to adjust the pH to 8). The solution was then diluted to the concentration employed using 0.2% strength citric acid which had been adjusted to pH 8 beforehand with aqueous sodium hydroxide solution. In each test, 3 ml of the solution of test compound per 4 kg animal were nebulized in the inhalation arm of the respiratory circuit using the Aeroneb® Pro nebulizer system. The mean nebulization time was about 7 min from the start of the nebulization.
With respect to a prediction of the duration of action for human studies comparative example 11 was compared in the PAH minipig model after inhaled application to Ventavis® (=Iloprost, 10 μg/kg nominal dose), which we used as a clinical reference. […] Therefore, the duration of action is more than 6 times longer compared to Ventavis in this preclinical animal model.

[4] = Caco-2 permeability test; type: in vitro ADME, human; conditions: human, Caco-2, 2.4 μM
Experimental: E-3. Further Characterization E-3.1 Caco-2 Permeability Test
The in vitro permeation of a test compound across a Caco-2 cell monolayer is a well-established assay system to predict the permeability from the gastro-intestinal tract (1). The permeability of the compounds of the present invention in such Caco-2 cells was determined as described below:
Human caco-2 cells were seeded on 24-well insert plates and were allowed to grow for 14-16 days. For permeability studies, the test compounds were dissolved in DMSO and diluted to the final test concentration of 2 μM with transport buffer [Hanks' Buffered Salt Solution, Gibco/Invitrogen, further supplemented with glucose and HEPES]. For determination of the apical to basolateral permeability (PappA-B), the test compound solution was added to the apical side of the cell monolayer and transport buffer to the basolateral side of the monolayer; for determination of the basolateral to apical permeability (PappB-A), the test compound solution was added to the basolateral side of the cell monolayer and transport buffer to the apical side of the monolayer. Samples were taken from the donor compartment at the beginning of the experiment to confirm mass balance. After an incubation of 2 h at 37° C., samples were taken from both compartments. Samples were analyzed by LC-MS/MS, and the apparent permeability coefficients were calculated. Lucifer Yellow permeability was assayed for each cell monolayer to ensure cell monolayer integrity, and the permeability of Atenolol (low permeability marker) and Sulfasalazine (marker for active excretion) was determined for each batch as quality control.

SMILES: CCCCC[C@H](O)CC[C@@H]1[C@H]2Cc3cccc(OCC(=O)O)c3C[C@H]2C[C@H]1O [Treprostinil]
mean change in PVR from baseline ([1]; inhaled, single administration, historical comparison): approximately −30%

SMILES: O=C(O)CCCCN(CCc1ccccc1OCc1ccc(CCc2ccccc2)cc1)Cc1ccc(C(=O)O)cc1 [comparative example 1]
effect on pulmonary arterial pressure ([2]; inhalative administration in the form of microparticles): dose-dependent selective reduction of the pulmonary arterial pressure
duration of action ([2]; inhalative administration): did not have a sufficient duration of action

SMILES: CC#CCC(C)[C@H](O)/C=C/[C@@H]1[C@H]2C/C(=C/CCCC(=O)O)C[C@H]2C[C@H]1O (stereo partly shown) [Ventavis ®]
PAP % changes vs prevalue ([3]; time 0 min): 0%
PAP % changes vs prevalue ([3]; time 10 min): −30.3%
PAP % changes vs prevalue ([3]; time 20 min): −20.7%
PAP % changes vs prevalue ([3]; time 30 min): −6.9%
PAP % changes vs prevalue ([3]; time 40 min): 1.7%
PAP % changes vs prevalue ([3]; time 50 min): 4.9%

efflux ratio at 2 h, 2.4 μM [4]: 11 ± 3.3
Papp A→B at 2 h, 2.4 μM ([4]; 2 h at 37° C., read-out: Papp A − B (mean +/− SD)): 3.5 ± 0.84 ×10⁻⁶ cm/s
Papp B→A at 2 h, 2.4 μM ([4]; 2 h at 37° C., read-out: Papp B − A (mean +/− SD)): 36.7 ± 7.5 ×10⁻⁶ cm/s
SMILES: COC(=O)N(C)c1c(N)nc(-c2nn(Cc3ccccc3F)c3ncccc23)nc1N [Comparative example 2 (Riociguat)]

SMILES: CC#CCC(C)[C@H](O)/C=C/[C@@H]1[C@H]2C/C(=C/CCCC(=O)O)C[C@H]2C[C@H]1O (stereo partly shown) [Ventavis]
duration of action on haemodynamics (PVR) ([1]; clinical studies): about 60 min
